In PubChem BioAssay (NCI):
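Interpolation was linear, between the two tested concentrations surrounding the appropriate level; five concentrations were tested over 48 hours in 96-well plates. The concentration for full growth arrest is given as TGI.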

Key:
Assay in all cases: NCI-60 cell line screen, 48 h
UACC-257 melanoma = tested on: UACC-257 melanoma
A498 renal = tested on: A498 renal
NCI/ADR-RES ovarian = tested on: NCI/ADR-RES ovarian
HCT-15 colon = tested on: HCT-15 colon
SK-MEL-28 melanoma = tested on: SK-MEL-28 melanoma
M14 melanoma = tested on: M14 melanoma
EKVX NSCLC = tested on: EKVX NSCLC
786-0 renal = tested on: 786-0 renal
U251 CNS = tested on: U251 CNS
SF-539 CNS = tested on: SF-539 CNS
CAKI-1 renal = tested on: CAKI-1 renal
A549 NSCLC = tested on: A549 NSCLC
HT29 colon = tested on: HT29 colon
COLO 205 colon = tested on: COLO 205 colon
NCI-H460 lung = tested on: NCI-H460 lung
PC-3 prostate = tested on: PC-3 prostate
SN12C renal = tested on: SN12C renal
SR leukemia = tested on: SR leukemia

SMILES | TGI (UACC-257 melanoma) [µM] | TGI (A498 renal) [µM] | TGI (NCI/ADR-RES ovarian) [µM] | TGI (HCT-15 colon) [µM] | TGI (SK-MEL-28 melanoma) [µM] | TGI (M14 melanoma) [µM] | TGI (EKVX NSCLC) [µM] | TGI (786-0 renal) [µM] | TGI (U251 CNS) [µM] | TGI (SF-539 CNS) [µM] | TGI (CAKI-1 renal) [µM] | TGI (A549 NSCLC) [µM] | TGI (HT29 colon) [µM] | TGI (COLO 205 colon) [µM] | TGI (NCI-H460 lung) [µM] | TGI (PC-3 prostate) [µM] | TGI (SN12C renal) [µM] | TGI (SR leukemia) [µM]
CCN(CC)CCCC(C)NC(=O)c1cc(-c2nccn2C)nc2ccc(C)cc12 (stereo not drawn) | > 100 | > 100 | > 100 | > 100 | > 100 | > 100 | > 100 | > 100 | > 100 | > 100 | > 100 | > 100 | > 100 | > 100 | > 100 | > 100 |  | 
C=CC1(c2ccc3ccccc3c2)OCC(CC)(CC)CO1 | 64.2 |  | 66.4 | 35.1 | > 100 | 60.6 |  | 50.9 | 42 | 33.5 |  | > 100 | 57.5 | 31.8 | 46.8 | 65.5 | 44.5 | 
CC1=C2C(=O)C3[C@@H](CCC4=CC(=O)CC[C@@]43C)C2CC[C@]12O[C@@H]1C[C@H](C)CN[C@H]1[C@H]2C (stereo partly drawn) | > 100 | > 100 |  | > 100 | > 100 | > 100 | > 100 | > 100 | 51.5 | > 100 | > 100 | > 100 | > 100 | > 100 | > 100 |  | > 100 | 43.4
Nc1ccc2cc(S(=O)(=O)O)cc(O)c2c1N=Nc1ccc(NC(=O)Nc2ccc(N=Nc3c(N)ccc4cc(S(=O)(=O)O)cc(O)c34)c(S(=O)(=O)O)c2)cc1S(=O)(=O)O | > 100 | > 100 | > 100 | > 100 | > 100 |  | > 100 |  | > 100 | > 100 |  | > 100 | > 100 | > 100 | > 100 |  | > 100 | 
O=C1NCC2(CCN(Cc3ccccc3)CC2)N1 | > 100 |  | > 100 | > 100 | > 100 | > 100 | > 100 | > 100 | > 100 | > 100 | > 100 | > 100 | > 100 | > 100 | > 100 | > 100 | > 100 | > 100
C=C1C(=O)OC2C[C@H](C)C3CC(=O)C(C)=C3CC12 (stereo partly drawn) | 28.6 | 43.7 |  | 25.9 | 18.7 | 27.4 | 32.8 | 26.1 | 18.1 | 35 | 18.2 | 69.1 | 31 | 26.5 | 51.6 |  | 26.1 | 22.3
CC(=O)Nc1ccc2c3c(cc(O)c2c1)N(C(=O)CCCC(=O)Nc1ccc2c4c(cc(O)c2c1)N(C(=O)OC(C)(C)C)CC4CCl)CC3CCl (stereo not drawn) | 3.34 | 2.63 | > 50 | > 50 | > 13 | 13.2 | > 35.3 | > 13.1 | 4.38 | > 50 | > 50 | > 50 | > 13.1 | 6.05 | 21.5 | > 15.6 | > 13.2 | 
COc1ccc(C2=NN(C(=O)c3ccccc3)C(O)(c3cc(F)c(Cl)cc3Cl)C2)cc1OC (stereo not drawn) | > 100 | > 100 | > 100 | > 100 | > 100 | > 100 | > 100 | > 100 | > 100 | > 100 | > 100 | > 100 | > 100 | > 100 | > 100 | > 100 | > 100 | 
NCCCCC(N)C(=O)N1CCN(c2nc(N3CCCC3)c3nc(Cl)c(NCc4ccccc4)nc3n2)CC1 (stereo not drawn) | 35.5 |  | > 100 | 35.2 | 40.5 | 33.9 | 36 | 33.1 | 36.5 | 37.6 | 91.8 | 37.3 | 38 | 33.1 | 34.4 | 32.1 | 34.3 | 44.9
OCCOCCN1CCN(c2nc(N3CCCC3)c3nc(Cl)c(NCc4ccccc4)nc3n2)CC1 | 27.4 |  | 31.1 | 15.3 | 30.2 | 24.8 | 27.1 | 26.5 | 25.5 | 88.3 | 31.1 | 28.4 | 13.7 | 21.7 | 24.7 | 27.1 | 29.4 | 17.8
C/C(O)=C(/C=N\C(=S)Nc1ccc(Cl)c(Cl)c1)C(=O)Nc1ccccc1C | > 100 | 79.6 | 61.1 | > 100 | > 100 | > 100 | > 100 | > 100 | > 100 | > 100 | 95.7 | > 100 | 87.1 | > 100 | > 100 |  | > 100 | 
NC(=O)Cc1ncn(-c2ccccc2)n1 | > 100 | > 100 | > 100 | > 100 |  | > 100 | > 100 | > 100 |  | > 100 | > 100 | > 100 | > 100 | > 100 |  |  | > 100 | > 100
COc1ccc(-c2nc(N(C)C)c3ccccc3n2)cc1 | 32.6 |  | 36.7 | 37.8 | 33.7 | 44.2 | 22.3 | 32.3 | 80 | 42.8 | > 100 | 46.8 | 22.7 | 29.6 | 26.9 | 58.8 | 39.8 | 29.1
Cc1cccc2nc3n(c12)C(=O)c1ccccc1-3 | > 100 |  | > 100 | > 100 | > 100 |  | > 100 | > 100 | > 100 | > 100 | > 100 | > 100 | > 100 | > 100 | > 100 | > 100 | > 100 | > 100
